Data on seven molecules can be found in ChEMBL document CHEMBL1134705, “Synthesis and antimicrobial activity of new 3 alpha-hydroxy-23,24-bisnorcholane polyamine carbamates” (2001).

Each structure is given as a SMILES string. In brackets after ≈: the same amount, converted by molar mass. A value given as a limit tells only on which side of the number the result lay.

The test system of one experiment is Staphylococcus aureus. The experiment can be described thus: Evaluated for its in vitro antimicrobial activity against Staphylococcus aureus (6538p). The format is functional.
In another experiment the test system is Proteus mirabilis. The experiment can be described thus: Evaluated for its antimicrobial activity against Proteus mirabilis (25933). Type of experiment: functional.
The next experiment concerns Bacillus subtilis. Briefly: Evaluated for its in vitro antimicrobial activity against Bacillus subtilis (6633). The format is functional.
The nature of experiment [1]: In vitro minimal hemolytic activity was determined. The format is functional.
The subject of a further experiment is Micrococcus luteus. Briefly: Evaluated for its antimicrobial activity against Micrococcus luteus (9341). Type of experiment: functional.
The subject of a further experiment is Pseudomonas aeruginosa. The experiment can be described thus: Evaluated for its antimicrobial activity against Pseudomonas aeruginosa (27853). The format is functional.
For another experiment, the system named is Serratia marcescens. Briefly: Evaluated for its antimicrobial activity against Serratia marcescens (27117). The format is functional.
In a further experiment the test system is Salmonella typhimurium. Briefly: Evaluated for its antimicrobial activity against Salmonella Typhimurium (14028). The format is functional, Salmonella enterica subsp. enterica serovar Typhimurium. The settings on record: Salmonella enterica.
A short description of experiment [2]: Evaluated for its in vitro antimicrobial activity against Staphylococcus equisimilis (6580C). Type of experiment: functional.
The test system of another experiment is Escherichia coli. Briefly: Evaluated for its antimicrobial activity against Escherichia coli (25922). The format is functional.
The subject of the next experiment is Klebsiella pneumoniae. Briefly: Evaluated for its antimicrobial activity against Klebsiella pneumoniae (10031). Type of experiment: functional.

Regarding `C[C@H](COC(=O)NCCCNCCCCNCCC[N+](C)(C)C)[C@H]1CC[C@H]2[C@@H]3CC[C@H]4C[C@H](O)CC[C@]4(C)[C@H]3CC[C@]12C`, the minimal inhibitory concentration (MIC) – broadly, the least concentration at which growth counts as inhibited – is 1.56 µg/mL against Staphylococcus aureus; over 100 µg/mL against Proteus mirabilis; 1.56 µg/mL against Bacillus subtilis; 3.13 µg/mL with Micrococcus luteus; 25 µg/mL against Pseudomonas aeruginosa; over 100 µg/mL against Serratia marcescens. The MIC in the experiment with Salmonella typhimurium is over 100 µg/mL; in [2], 1.56 µg/mL; in the experiment with Escherichia coli, 6.25 µg/mL; with Klebsiella pneumoniae it was 6.25 µg/mL. In addition, the MHC in [1] came out at 25 µg/mL.
Regarding `C[C@H](COC(=O)NCCCNCCCCN)[C@H]1CC[C@H]2[C@@H]3[C@H](F)C[C@H]4C[C@H](O)CC[C@]4(C)[C@H]3CC[C@]12C`, the MIC in the experiment with Staphylococcus aureus was 3.13 µg/mL (≈ 5.98 µM); against Proteus mirabilis, over 100 µg/mL; against Bacillus subtilis it was 3.13 µg/mL (≈ 5.98 µM); against Micrococcus luteus it was 3.13 µg/mL (≈ 5.98 µM); with Pseudomonas aeruginosa, 12.5 µg/mL (≈ 23.9 µM); against Serratia marcescens, over 100 µg/mL. In addition, the MIC against Salmonella typhimurium was over 100 µg/mL; in experiment [2], 6.25 µg/mL (≈ 11.9 µM); in the experiment on Escherichia coli, 12.5 µg/mL (≈ 23.9 µM); against Klebsiella pneumoniae it was 12.5 µg/mL (≈ 23.9 µM). This molecule gave an MHC in experiment [1] of 50 µg/mL.
`CC(C)[C@@H](CC[C@@H](C)[C@H]1CC[C@H]2[C@@H]3[C@H](O)C[C@H]4C[C@@H](NCCCNCCCCN)CC[C@]4(C)[C@H]3CC[C@]12C)OS(=O)(=O)O` [SQUALAMINE]: the MIC in the experiment with Staphylococcus aureus was 6.25 µg/mL (≈ 9.95 µM); with Proteus mirabilis, over 100 µg/mL; against Bacillus subtilis, 3.13 µg/mL (≈ 4.98 µM); in the experiment with Micrococcus luteus, 3.13 µg/mL (≈ 4.98 µM); in the experiment with Pseudomonas aeruginosa, over 100 µg/mL; in the experiment with Serratia marcescens, over 100 µg/mL. Moreover, the minimal inhibitory concentration (MIC) with Salmonella typhimurium was over 100 µg/mL; in [2], 3.13 µg/mL (≈ 4.98 µM); in the experiment with Escherichia coli, over 100 µg/mL; in the experiment with Klebsiella pneumoniae it was 12.5 µg/mL (≈ 19.9 µM).
In the case of `C[C@H](COC(=O)NCCCNCCCCN)[C@H]1CC[C@H]2[C@@H]3[C@H](O)C[C@H]4C[C@H](O)CC[C@]4(C)[C@H]3CC[C@]12C`, the minimum inhibitory concentration (MIC) against Staphylococcus aureus is 3.13 µg/mL (≈ 6 µM); with Proteus mirabilis it was over 100 µg/mL; in the experiment with Bacillus subtilis it was 6.25 µg/mL (≈ 12 µM); against Micrococcus luteus it was 3.13 µg/mL (≈ 6 µM); against Pseudomonas aeruginosa, 25 µg/mL (≈ 47.9 µM); in the experiment on Serratia marcescens it was over 100 µg/mL. Moreover, the minimal inhibitory concentration (MIC) against Salmonella typhimurium is over 100 µg/mL; in experiment [2], 12.5 µg/mL (≈ 24 µM); against Escherichia coli, 50 µg/mL (≈ 95.8 µM); against Klebsiella pneumoniae, over 100 µg/mL. The MHC in experiment [1] was 100 µg/mL.
As for `C[C@H](COC(=O)NCCCNCCCCN)[C@H]1CC[C@H]2[C@@H]3CC[C@@H]4C[C@H](O)CC[C@]4(C)[C@H]3CC[C@]12C`, the MIC in the experiment on Staphylococcus aureus was 0.78 µg/mL (≈ 1.54 µM); with Proteus mirabilis it was over 100 µg/mL; against Bacillus subtilis it was 3.13 µg/mL (≈ 6.19 µM); in the experiment on Micrococcus luteus, 1.56 µg/mL (≈ 3.08 µM); with Pseudomonas aeruginosa, over 100 µg/mL; with Serratia marcescens it was over 100 µg/mL. Also, the MIC against Salmonella typhimurium was 12.5 µg/mL (≈ 24.7 µM); in experiment [2], 3.13 µg/mL (≈ 6.19 µM); against Escherichia coli it was 25 µg/mL (≈ 49.4 µM); against Klebsiella pneumoniae it was 3.13 µg/mL (≈ 6.19 µM). The same molecule showed an MHC in experiment [1] of 25 µg/mL.
`C[C@H](COC(=O)NCCCNCCCCNCCC[N+](C)(C)C)[C@H]1CC[C@H]2[C@@H]3CC[C@@H]4C[C@H](O)CC[C@]4(C)[C@H]3CC[C@]12C`: the minimum inhibitory concentration (MIC) against Staphylococcus aureus was 0.78 µg/mL; with Proteus mirabilis it was over 100 µg/mL; with Bacillus subtilis, 1.56 µg/mL; in the experiment on Micrococcus luteus, 1.56 µg/mL; with Pseudomonas aeruginosa, 3.13 µg/mL; against Serratia marcescens, over 100 µg/mL. For the same molecule, the MIC against Salmonella typhimurium is 12.5 µg/mL; in experiment [2], 1.56 µg/mL; in the experiment on Escherichia coli it was 12.5 µg/mL; against Klebsiella pneumoniae, over 100 µg/mL. Also, the MHC in experiment [1] came out at 25 µg/mL.
For `C[C@H](COC(=O)NCCCNCCCCN)[C@H]1CC[C@H]2[C@@H]3CC[C@H]4C[C@H](O)CC[C@]4(C)[C@H]3CC[C@]12C`, the MIC in the experiment with Staphylococcus aureus is 3.13 µg/mL (≈ 6.19 µM); in the experiment with Proteus mirabilis, over 100 µg/mL; against Bacillus subtilis, 6.25 µg/mL (≈ 12.4 µM); with Micrococcus luteus, 3.13 µg/mL (≈ 6.19 µM); against Pseudomonas aeruginosa it was over 100 µg/mL; in the experiment with Serratia marcescens it was over 100 µg/mL. In addition, the MIC in the experiment on Salmonella typhimurium was 12.5 µg/mL (≈ 24.7 µM); in [2], 12.5 µg/mL (≈ 24.7 µM); in the experiment with Escherichia coli, over 100 µg/mL; against Klebsiella pneumoniae it was 1.56 µg/mL (≈ 3.08 µM). The molecule also returned an MHC in experiment [1] of 25 µg/mL.
